The results in this text go back to ChEMBL document CHEMBL4483862, “Open-source discovery of chemical leads for next-generation chemoprotective antimalarials” (2018).

The assay has as its system Plasmodium berghei. Put plainly: Luciferase/luciferin-expressing antifolate-resistant parasites were used to infect a culture of HepG2 cells that were pre-incubated with compounds. Infected hepatocytes emit light due to the luciferase reaction. Assay results are presented as the percent inhibition of light emission compared to control. […]. Type of assay: functional. The note with it: sporozoite; for IC90: read-out: LUCIFERASE INFECTION ASSAY - IC90.

The mark [1] stands for this setting: read-out: LUCIFERASE INFECTION ASSAY - IC50.

With `CCN(CC)S(=O)(=O)c1ccc(OC(C)C)c(NC(=O)C2=CN3CCS(=O)(=O)N=C3C=C2)c1`, the IC90 came out at 4.52 µM. The IC50 (PBLUC_HILL_SLOPE 11.8, PBLUC_R_SQUARED 0.349, read-out: LUCIFERASE INFECTION ASSAY - IC50) amounted to 3.75 µM.
Regarding `CC(=O)Nc1ccc(C2NC(=O)NC(c3ccccc3)=C2c2nc3ccccc3s2)cc1` (stereo unspecified), the IC90 is over 10 µM. Moreover, the IC50 under setting [1] is over 10 µM.
As to `CN(C)C(=O)c1ccc(-c2cc3c(Nc4cccc(N(C)C)c4)nccc3n2C)cc1`, the concentration for an effect of 90% (IC90) is over 10 µM. The IC50 under setting [1] is over 10 µM.
`CC(C)Nc1cc(-c2ccccc2)nc2c(-c3ccccc3)cnn12`: the concentration for an effect of 90% (IC90) was over 10 µM. In addition, the 50% inhibitory concentration (IC50) (PBLUC_HILL_SLOPE 1.35, PBLUC_R_SQUARED 0.594, read-out: LUCIFERASE INFECTION ASSAY - IC50) turned out to be 2.01 µM.
Consider `c1ccc2cc(-c3cnc4ccc(NCc5ccncc5)nn34)ccc2c1`, for which the IC90 is 4.49 µM. In addition, the IC50 (HEPG2TOX_HILL_SLOPE 3.1, HEPG2TOX_R_SQUARED 0.978, PBLUC_HILL_SLOPE 7.42, PBLUC_R_SQUARED 0.525, read-out: LUCIFERASE INFECTION ASSAY - IC50) was 3.34 µM.
Turning to `Nc1nc(Sc2ncnc3ccsc23)nc2sccc12`, the IC90 was over 10 µM. For the same compound, under setting [1], the IC50 amounted to 9.85 µM.
`Nc1ccc(-c2cnc3ccc(NCc4ccc(F)cc4)nn23)cc1`: the IC90 stood at 0.372 µM. Further, under “HEPG2TOX_HILL_SLOPE 3.34, HEPG2TOX_R_SQUARED 0.665, PBLUC_HILL_SLOPE 6.16, PBLUC_R_SQUARED 0.867, read-out: LUCIFERASE INFECTION ASSAY - IC50”, the IC50 came to 0.26 µM.
Consider `COc1cc(Nc2nccc3c2cc(-c2ccc(C(=O)N(C)C)cc2)n3C)cc(C(F)(F)F)c1`, for which the concentration for an effect of 90% (IC90) was found to be 4.64 µM. Also, the IC50 (PBLUC_HILL_SLOPE 8.8, PBLUC_R_SQUARED 0.371, read-out: LUCIFERASE INFECTION ASSAY - IC50) amounted to 3.62 µM.
For `Cc1c(/C=N/N)c2ccccn2c1C#N`, the 90% effect concentration (IC90) was over 10 µM. Also, the 50% inhibitory concentration (IC50) under setting [1] was over 10 µM.
Turning to `CC/C(=N\NC(=O)COc1cccc(Br)c1)c1cc(F)ccc1O`, the IC90 amounted to 9.51 µM. Besides, the IC50 (HEPG2TOX_HILL_SLOPE 1.42, HEPG2TOX_R_SQUARED 0.962, PBLUC_HILL_SLOPE 3.55, PBLUC_R_SQUARED 0.0785, read-out: LUCIFERASE INFECTION ASSAY - IC50) is 5.12 µM.
For `Cc1ccc2nc(CNc3ccccc3-c3ccccc3)cc(=O)n2c1`, the IC90 was over 10 µM. Moreover, the IC50 under setting [1] is over 10 µM.
Consider `Oc1cc2[nH]c3ccccc3c2cc1CN1CCN(Cc2cccs2)CC1`, for which the 90% effect concentration (IC90) was over 10 µM. Further, the IC50 (HEPG2TOX_HILL_SLOPE 0.0488, HEPG2TOX_R_SQUARED 0.0234, PBLUC_HILL_SLOPE 24, PBLUC_R_SQUARED 0.263, read-out: LUCIFERASE INFECTION ASSAY - IC50) was found to be 9.5 µM.
Turning to `CC(C)c1ccc(/C=C/C2=NNC(=O)CC2)cc1`, the IC90 is over 13.6 µM. Also, the concentration for half-maximal inhibition (IC50) (HEPG2TOX_HILL_SLOPE 0.687, HEPG2TOX_R_SQUARED 0.88, PBLUC_HILL_SLOPE 0.307, PBLUC_R_SQUARED 0.14, read-out: LUCIFERASE INFECTION ASSAY - IC50) was over 13.6 µM.
Consider `O=c1[nH]c2ccc(-c3csc(Nc4ccc(Cl)cc4)n3)cc2o1`, for which the IC90 was over 10 µM. Where the note is “HEPG2TOX_HILL_SLOPE 16.7, HEPG2TOX_R_SQUARED 0.933, PBLUC_HILL_SLOPE 4.05, PBLUC_R_SQUARED 0.109, read-out: LUCIFERASE INFECTION ASSAY - IC50”, the 50% inhibitory concentration (IC50) worked out at 7.81 µM.
Take `Cc1cc(Br)c(NC(=S)NC(=O)C(C)(C)C)c(Br)c1`: the 90% effect concentration (IC90) is over 8.09 µM. For the same compound, where the note is “HEPG2TOX_HILL_SLOPE 2.38, HEPG2TOX_R_SQUARED 0.209, read-out: LUCIFERASE INFECTION ASSAY - IC50”, the IC50 was over 8.09 µM.
Consider `CCOC(=O)C1=C(Cn2ccnc2)NC(=O)NC1CC` (stereo unspecified), for which the IC90 was over 10 µM. Besides, the half-inhibitory concentration (IC50) under setting [1] is over 10 µM.
On to `CC1CCC(NC(=O)c2ccc(S(=O)(=O)Nc3ccccc3)cc2)CC1` (stereo unspecified), for which the IC90 is over 10 µM. Further, the concentration for half-maximal inhibition (IC50) under setting [1] is over 10 µM.
Take `Nc1nccnc1C(=O)NNC(=O)COc1ccccc1Cc1ccccc1`: the IC90 amounted to 3.67 µM. For the same compound, under “HEPG2TOX_HILL_SLOPE 1.59, HEPG2TOX_R_SQUARED 0.794, PBLUC_HILL_SLOPE 15.4, PBLUC_R_SQUARED 0.41, read-out: LUCIFERASE INFECTION ASSAY - IC50”, the IC50 is 3.18 µM.
With `O=[N+]([O-])c1cc2c(cc1C(O)c1nnc(-c3ccccc3)o1)OCO2` (stereo unspecified), the IC90 stood at 8.01 µM. For the same compound, the IC50 under setting [1] came to 1.69 µM.
For the compound `CC(C)N1C(=O)N(CCc2ccccc2)C2(CCN(C3Cc4ccccc4C3)CC2)C1=O`, the 90% effect concentration (IC90) is over 7.65 µM. Besides, under setting [1], the IC50 worked out at 6.55 µM.
For `Cc1ccc2nc(-c3ccc(NC(=O)CN4C(=O)NC(C)(c5ccc(OC(F)F)cc5)C4=O)cc3)sc2c1` (stereo unspecified), the IC90 was over 10 µM. In addition, the IC50 (PBLUC_HILL_SLOPE 1.6, PBLUC_R_SQUARED 0.077, read-out: LUCIFERASE INFECTION ASSAY - IC50) is over 10 µM.
On to `CC(C)(C)c1ccc(OCCNC(=O)c2cccnc2)cc1`, for which the concentration for an effect of 90% (IC90) was over 11.1 µM. In addition, the IC50 under setting [1] is over 11.1 µM.
Consider `CC(C)Nc1nc(NCC2CCCCC2)c2sccc2n1`, for which the IC90 was over 10.8 µM. The IC50 (FFLUC_HILL_SLOPE 8.35, FFLUC_R_SQUARED 0.136, PBLUC_HILL_SLOPE 0.461, PBLUC_R_SQUARED 0.456, read-out: LUCIFERASE INFECTION ASSAY - IC50) was found to be 1.8 µM.
Turning to `CN(CC(=O)Nc1nc(C23CC4CC(CC(C4)C2)C3)cs1)C(=O)c1ccco1`, the IC90 amounted to 4.63 µM. The half-inhibitory concentration (IC50) (HEPG2TOX_HILL_SLOPE 8.2, HEPG2TOX_R_SQUARED 0.447, PBLUC_HILL_SLOPE 10.5, PBLUC_R_SQUARED 0.337, read-out: LUCIFERASE INFECTION ASSAY - IC50) worked out at 3.76 µM.
With `COC(=O)c1cc(OC)c(OC)cc1NS(=O)(=O)c1ccc(OC)cc1`, the IC90 is over 8.65 µM. In addition, the half-inhibitory concentration (IC50) under setting [1] is 3.35 µM.
`CN(CCO)c1ccc(C(=O)c2ccc(N(C)CCO)cc2)cc1`: the IC90 is 9.22 µM. Moreover, the IC50 (HEPG2TOX_HILL_SLOPE 1.17, HEPG2TOX_R_SQUARED 0.868, PBLUC_HILL_SLOPE 1.55, PBLUC_R_SQUARED 0.285, read-out: LUCIFERASE INFECTION ASSAY - IC50) is 2.24 µM.
Take `Cc1ccn2c(=O)cc(CN3C(=O)NC4(CCCc5ccccc54)C3=O)nc2c1` (stereo unspecified): the IC90 is over 10 µM. Further, the IC50 (PBLUC_HILL_SLOPE 16.8, PBLUC_R_SQUARED 0.349, read-out: LUCIFERASE INFECTION ASSAY - IC50) came out at 9.44 µM.
As for `CC(C)(C)c1ccc(C(=O)NNC(=S)Nc2ccccc2)cc1`, the 90% effect concentration (IC90) is over 10.1 µM. Further, the 50% inhibitory concentration (IC50) (FFLUC_HILL_SLOPE 0.417, FFLUC_R_SQUARED 0.371, PBLUC_HILL_SLOPE 1.47, PBLUC_R_SQUARED 0.465, read-out: LUCIFERASE INFECTION ASSAY - IC50) was 3.05 µM.
As for `Cn1c(Nc2ccccc2)nc2cnc(-c3ccc(N4CCOCC4)cc3)cc21`, the IC90 is over 10 µM. Besides, the IC50 under setting [1] came out at 9.31 µM.
For the compound `COc1ccc(-c2cnc3ccc(NCc4cccc(Cl)c4)nn23)cn1`, the 90% effect concentration (IC90) stood at 7.71 µM. In addition, the IC50 (PBLUC_HILL_SLOPE 5.4, PBLUC_R_SQUARED 0.229, read-out: LUCIFERASE INFECTION ASSAY - IC50) amounted to 5.13 µM.
With `c1ccc(C2(CNc3ncnc4ccccc34)CCC2)cc1`, the IC90 was determined as 5.71 µM. The 50% inhibitory concentration (IC50) (HEPG2TOX_HILL_SLOPE 1.34, HEPG2TOX_R_SQUARED 0.743, PBLUC_HILL_SLOPE 15.9, 1.42, PBLUC_R_SQUARED 0.162, 0.799, read-out: LUCIFERASE INFECTION ASSAY - IC50) is 2.35 µM.
As to `CSc1ccc(-c2cn3c(-c4ccc(C(=O)NC5CC5)cc4)cnc3cn2)cc1`, the IC90 is over 8.24 µM. The IC50 (PBLUC_HILL_SLOPE 11.7, PBLUC_R_SQUARED 0.658, read-out: LUCIFERASE INFECTION ASSAY - IC50) stood at 7.27 µM.
With `O=C(Nc1nc2ccccn2c1C(=O)NC1CCCC1)c1ccccc1F`, the 90% effect concentration (IC90) worked out at 4.76 µM. Also, the IC50 (HEPG2TOX_HILL_SLOPE 0.364, HEPG2TOX_R_SQUARED 0.251, PBLUC_HILL_SLOPE 7.71, PBLUC_R_SQUARED 0.78, read-out: LUCIFERASE INFECTION ASSAY - IC50) turned out to be 3.58 µM.
As for `Cc1ccc2c(Cl)c(C(=O)Nc3nonc3-c3ccc(F)cc3)sc2c1`, the IC90 was 3.32 µM. Moreover, the IC50 under setting [1] worked out at 1.77 µM.
Turning to `CCn1c(C)nc2cc(C(=O)NNC(=O)/C=C/c3cccc(C(F)(F)F)c3)ccc21`, the IC90 is over 10 µM. Further, the IC50 under setting [1] is over 10 µM.
In the case of `Cc1cc(O)nc(N/N=C/c2cc(C)n(CC(F)(F)F)c2C)n1`, the concentration for an effect of 90% (IC90) is over 10 µM. Also, for the setting “HEPG2TOX_HILL_SLOPE 2.49, HEPG2TOX_R_SQUARED 0.474, PBLUC_HILL_SLOPE 1.68, PBLUC_R_SQUARED 0.728, read-out: LUCIFERASE INFECTION ASSAY - IC50”, the IC50 was 3.36 µM.
`COc1cccc(OC)c1C(=O)Nc1cc2c(c([N+](=O)[O-])c1C)C(C)(C)CC2(C)C`: the IC90 was 6.98 µM. Further, the IC50 (FFLUC_HILL_SLOPE 10.9, FFLUC_R_SQUARED 0.163, HEPG2TOX_HILL_SLOPE 1.05, HEPG2TOX_R_SQUARED 0.731, PBLUC_HILL_SLOPE 1.82, PBLUC_R_SQUARED 0.597, read-out: LUCIFERASE INFECTION ASSAY - IC50) worked out at 2.09 µM.
With `CCNC(=O)c1nn(Cc2cccc(OC)c2)c2c1CN(CCC(C)c1ccc(C)o1)CC2` (stereo unspecified), the concentration for an effect of 90% (IC90) was over 7.32 µM. In addition, the half-maximal inhibitory concentration (IC50) (PBLUC_HILL_SLOPE 5.04, PBLUC_R_SQUARED 0.686, read-out: LUCIFERASE INFECTION ASSAY - IC50) turned out to be 6.68 µM.
